We go through 17 compounds from patent US20230019491A1, “PYRIMIDINE TBK/IKKe INHIBITOR COMPOUNDS AND USES THEREOF” (Merck Patent GmbH, priority 2017, published 2023).

Test [1] deals with T1, IKKε (Homo sapiens, UniProt Q14164).
T1 sequence (Q14164 1-716): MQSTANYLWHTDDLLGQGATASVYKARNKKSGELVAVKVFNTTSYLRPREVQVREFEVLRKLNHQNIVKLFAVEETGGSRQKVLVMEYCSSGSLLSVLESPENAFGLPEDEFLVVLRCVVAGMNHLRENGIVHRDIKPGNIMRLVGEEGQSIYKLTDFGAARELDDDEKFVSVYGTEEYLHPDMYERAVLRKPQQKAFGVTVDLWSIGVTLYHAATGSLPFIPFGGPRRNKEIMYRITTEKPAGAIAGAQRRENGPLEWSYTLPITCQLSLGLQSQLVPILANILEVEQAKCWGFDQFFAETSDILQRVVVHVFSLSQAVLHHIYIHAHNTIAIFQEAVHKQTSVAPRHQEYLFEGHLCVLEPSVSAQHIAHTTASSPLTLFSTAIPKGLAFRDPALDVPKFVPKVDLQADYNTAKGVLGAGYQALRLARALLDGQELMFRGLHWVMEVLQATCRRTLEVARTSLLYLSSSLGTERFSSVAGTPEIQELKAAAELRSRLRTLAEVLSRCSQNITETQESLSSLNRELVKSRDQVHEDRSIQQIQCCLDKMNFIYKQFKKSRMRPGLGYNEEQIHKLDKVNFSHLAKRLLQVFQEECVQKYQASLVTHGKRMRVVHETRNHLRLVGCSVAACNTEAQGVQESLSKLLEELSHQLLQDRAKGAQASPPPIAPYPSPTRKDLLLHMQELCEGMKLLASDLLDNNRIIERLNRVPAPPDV
Description: IKKε biochemical assay. The settings on record: 10 point 1:4 dose response, 30 uM top concentration, 90 min at 25° C., LabChip EZ Reader II; read-out: IKKε_IC50. The procedure, abridged:
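Mobility-shift LabChip read-out followed a 90 min, 25° C. reaction of IKKε with substrate and test compound, with DMSO held at 1% final. Reactions were ended with stop buffer. Wells with 10 uM final staurosporine defined complete inhibition, and DMSO-only wells the uninhibited level.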

Test [2] has as its target T2, TBK1 (Homo sapiens, UniProt Q9UHD2).
T2 sequence (Q9UHD2 1-729): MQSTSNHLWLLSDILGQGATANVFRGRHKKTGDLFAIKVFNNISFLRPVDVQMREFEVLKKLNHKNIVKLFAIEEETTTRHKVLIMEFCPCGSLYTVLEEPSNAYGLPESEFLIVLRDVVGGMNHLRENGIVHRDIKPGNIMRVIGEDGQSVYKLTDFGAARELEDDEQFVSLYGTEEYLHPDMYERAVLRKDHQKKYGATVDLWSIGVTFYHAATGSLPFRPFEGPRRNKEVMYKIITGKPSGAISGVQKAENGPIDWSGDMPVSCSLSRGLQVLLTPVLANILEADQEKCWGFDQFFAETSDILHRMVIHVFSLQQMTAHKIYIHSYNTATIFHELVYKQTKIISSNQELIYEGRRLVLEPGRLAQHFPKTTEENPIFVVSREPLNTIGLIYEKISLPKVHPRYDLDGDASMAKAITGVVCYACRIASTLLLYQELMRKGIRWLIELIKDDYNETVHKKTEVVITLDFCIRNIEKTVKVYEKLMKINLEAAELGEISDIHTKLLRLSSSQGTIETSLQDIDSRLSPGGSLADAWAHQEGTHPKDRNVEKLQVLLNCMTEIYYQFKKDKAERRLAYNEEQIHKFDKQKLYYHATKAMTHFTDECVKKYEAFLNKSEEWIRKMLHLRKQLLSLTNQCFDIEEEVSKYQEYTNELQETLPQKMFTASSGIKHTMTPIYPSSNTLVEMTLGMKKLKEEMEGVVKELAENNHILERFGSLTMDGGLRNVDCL
Description: TBK biochemical assay. The settings on record: 10 point 1:4 dose response, 30 uM top concentration, 90 min at 25° C., LabChip EZ Reader II; read-out: TBK1_IC50. The procedure, abridged: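 Read-out was a Caliper LabChip mobility-shift assay, run after a 90-min, 25 °C reaction of TBK1 with substrate and compounds, quenched with stop buffer. Control wells received staurosporine at 10 uM final.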

A value given as a limit tells only on which side of the number the result lay.

For the compound `COc1nc(Nc2nccc(-c3ccc(OC4CCN(C(=O)[C@H](C)O)CC4(F)F)c(C#N)c3)n2)ccc1N1CCN(C2COC2)[C@@H](C)C1` (stereo partly drawn) [Example 127, 2-[3,3-Difluoro-1-((S)-2-hydroxy-propionyl)-piperidin-4-yloxy]-5-{2-[6-methoxy-5-((S)-3-methyl-4-oxetan-3-yl-piperazin-1-yl)-pyridin-2-ylamino]-pyrimidin-4-yl}-benzonitrile], the IC50 in test [1] and in test [2] was less than 100 nM each time.

Consider `COc1nc(Nc2nccc(-c3ccc(OC4CCN(C(=O)[C@H](C)O)CC4(F)F)c(C#N)c3)n2)ccc1N1CCN(C2COC2)[C@H](C)C1` (stereo partly drawn) [Example 128, 2-[3,3-Difluoro-1-((S)-2-hydroxy-propionyl)-piperidin-4-yloxy]-5-{2-[6-methoxy-5-((R)-3-methyl-4-oxetan-3-yl-piperazin-1-yl)-pyridin-2-ylamino]-pyrimidin-4-yl}-benzonitrile], for which the IC50 in test [1] and in test [2] was less than 100 nM each time.

As to `COc1nc(Nc2nccc(-c3ccc(OC4CCNCC4(F)F)c(C#N)c3)n2)ccc1N1CCN(C2COC2)C[C@H]1C` (stereo partly drawn) [Example 129, 2-(3,3-Difluoro-piperidin-4-yloxy)-5-{2-[6-methoxy-5-((R)-2-methyl-4-oxetan-3-yl-piperazin-1-yl)-pyridin-2-ylamino]-pyrimidin-4-yl}-benzonitrile], the IC50 in test [1] and in test [2] was less than 100 nM in each case.

With `COc1nc(Nc2nccc(-c3ccc(OC4CCN(C(=O)[C@@H](C)O)CC4(F)F)c(C#N)c3)n2)ccc1N1CCN(C2COC2)C[C@H]1C` (stereo partly drawn) [Example 130, 2-[3,3-Difluoro-1-((R)-2-hydroxy-propionyl)-piperidin-4-yloxy]-5-{2-[6-methoxy-5-((R)-2-methyl-4-oxetan-3-yl-piperazin-1-yl)-pyridin-2-ylamino]-pyrimidin-4-yl}-benzonitrile], the IC50 in test [1] and in test [2] was less than 100 nM each time.

On to `COc1nc(Nc2nccc(-c3ccc(OC4CCN(C(=O)[C@H](C)O)CC4(F)F)c(C#N)c3)n2)ccc1N1CCN(C2COC2)C[C@@H]1C` (stereo partly drawn) [Example 131, 2-[3,3-Difluoro-1-((S)-2-hydroxy-propionyl)-piperidin-4-yloxy]-5-{2-[6-methoxy-5-((S)-2-methyl-4-oxetan-3-yl-piperazin-1-yl)-pyridin-2-ylamino]-pyrimidin-4-yl}-benzonitrile], for which the IC50 in test [1] and in test [2] was less than 100 nM throughout.

As for `COc1nc(Nc2nccc(-c3ccc(OC4CCN(C(=O)[C@H](C)O)CC4(F)F)c(C#N)c3)n2)ccc1N1CCN(C2COC2)C[C@H]1C` (stereo partly drawn) [Example 132, 2-[3,3-Difluoro-1-((S)-2-hydroxy-propionyl)-piperidin-4-yloxy]-5-{2-[6-methoxy-5-((R)-2-methyl-4-oxetan-3-yl-piperazin-1-yl)-pyridin-2-ylamino]-pyrimidin-4-yl}-benzonitrile], the IC50 in test [1] and in test [2] was less than 100 nM in each case.

As to `COc1nc(Nc2nccc(-c3ccc(OC4CCN(C(=O)[C@@H](O)CO)CC4(F)F)c(C#N)c3)n2)ccc1N1CCN(C2COC2)C[C@H]1C` (stereo partly drawn) [Example 133, 2-[1-((S)-2,3-Dihydroxy-propionyl)-3,3-difluoro-piperidin-4-yloxy]-5-{2-[6-methoxy-5-((R)-2-methyl-4-oxetan-3-yl-piperazin-1-yl)-pyridin-2-ylamino]-pyrimidin-4-yl}-benzonitrile], the IC50 in test [1] and in test [2] was less than 100 nM in each case.

`N#Cc1cc(-c2ccnc(Nc3ccc(N4CCN(C5CC5)CC4)cc3)n2)ccc1OC1CCOCC1` [Example 134, 5-{2-[4-(4-Cyclopropyl-piperazin-1-yl)-phenylamino]-pyrimidin-4-yl}-2-(tetrahydro-pyran-4-yloxy)-benzonitrile]: the IC50 in test [1] and in test [2] was less than 100 nM in each case.

Take `N#Cc1cc(-c2ccnc(Nc3ccc(N4CCN(C5COC5)CC4)cc3)n2)ccc1OC1CCOCC1` [Example 135, 2-(oxan-4-yloxy)-5-[2-([4-[4-(oxetan-3-yl)piperazin-1-yl]phenyl]amino)pyrimidin-4-yl]benzonitrile]: the IC50 in test [1] and in test [2] was less than 100 nM in each case.

Take `N#Cc1cc(-c2ccnc(Nc3ccc(N4CCN(C5COC5)CC4)cc3)n2)ccc1OC1CCNCC1(F)F` (stereo not shown) [Example 136, 2-[(3,3-difluoropiperidin-4-yl)oxy]-5-[2-([4-[4-(oxetan-3-yl)piperazin-1-yl]phenyl]amino)pyrimidin-4-yl]benzonitrile]: the IC50 in test [1] and in test [2] was less than 100 nM each time.

`N#Cc1cc(-c2ccnc(Nc3ccc(N4CCN(C5COC5)CC4)cc3)n2)ccc1OC1CCN(C(=O)CO)CC1(F)F` (stereo not shown) [Example 137, 2-[[3,3-difluoro-1-(2-hydroxyacetyl)piperidin-4-yl]oxy]-5-[2-([4-[4-(oxetan-3-yl)piperazin-1-yl]phenyl]amino)pyrimidin-4-yl]benzonitrile]: the IC50 in test [1] and in test [2] was less than 100 nM throughout.

On to `C[C@H](O)C(=O)N1CCC(Oc2ccc(-c3ccnc(Nc4ccc(N5CCN(C6COC6)CC5)cc4)n3)cc2C#N)C(F)(F)C1` (stereo partly drawn) [Example 138, 2-([3,3-difluoro-1-[(2S)-2-hydroxypropanoyl]piperidin-4-yl]oxy)-5-[2-([4-[4-(oxetan-3-yl)piperazin-1-yl]phenyl]amino)pyrimidin-4-yl]benzonitrile], for which the IC50 in test [1] and in test [2] was less than 100 nM in each case.

Consider `C[C@H](O)C(=O)N1CC[C@H](Oc2ccc(-c3ccnc(Nc4ccc(N5CCN(C6COC6)CC5)cc4)n3)cc2C#N)C(F)(F)C1` [Example 139, 2-[[(4S)-3,3-difluoro-1-[(2S)-2-hydroxypropanoyl]piperidin-4-yl]oxy]-5-[2-([4-[4-(oxetan-3-yl)piperazin-1-yl]phenyl]amino)pyrimidin-4-yl]benzonitrile], for which the IC50 in test [1] and in test [2] was less than 100 nM throughout.

With `C[C@H](O)C(=O)N1CC[C@@H](Oc2ccc(-c3ccnc(Nc4ccc(N5CCN(C6COC6)CC5)cc4)n3)cc2C#N)C(F)(F)C1` [Example 140, 2-[[(4R)-3,3-difluoro-1-[(2S)-2-hydroxypropanoyl]piperidin-4-yl]oxy]-5-[2-([4-[4-(oxetan-3-yl)piperazin-1-yl]phenyl]amino)pyrimidin-4-yl]benzonitrile], the IC50 in test [1] and in test [2] was less than 100 nM each time.

`C[C@@H](O)C(=O)N1CCC(Oc2ccc(-c3ccnc(Nc4ccc(N5CCN(C6COC6)CC5)cc4)n3)cc2C#N)C(F)(F)C1` (stereo partly drawn) [Example 141, 2-([3,3-difluoro-1-[(2R)-2-hydroxypropanoyl]piperidin-4-yl]oxy)-5-[2-([4-[4-(oxetan-3-yl)piperazin-1-yl]phenyl]amino)pyrimidin-4-yl]benzonitrile]: the IC50 in test [1] and in test [2] was less than 100 nM in each case.

Turning to `C[C@@H](O)C(=O)N1CC[C@H](Oc2ccc(-c3ccnc(Nc4ccc(N5CCN(C6COC6)CC5)cc4)n3)cc2C#N)C(F)(F)C1` [Example 142, 2-[[(4S)-3,3-difluoro-1-[(2R)-2-hydroxypropanoyl]piperidin-4-yl]oxy]-5-[2-([4-[4-(oxetan-3-yl)piperazin-1-yl]phenyl]amino)pyrimidin-4-yl]benzonitrile], the IC50 in test [1] and in test [2] was less than 100 nM each time.

For the compound `COc1nc(Nc2nccc(-c3ccc(OC4CCNCC4(F)F)c(C#N)c3)n2)ccc1C1CCN(C)CC1` (stereo not shown) [Example 144, 2-(3,3-Difluoro-piperidin-4-yloxy)-5-[2-(2-methoxy-1′-methyl-1′,2′,3′,4′,5′,6′-hexahydro-[3,4′]bipyridinyl-6-ylamino)-pyrimidin-4-yl]-benzonitrile], the IC50 in test [1] and in test [2] was less than 100 nM in each case.
